Data as given in patent publication US20030220524A1, “Sulfur containing compounds” (priority 2000, published 2003).
Values belong to the compound of their own block, whether it stands above or below them.

Experiments:
NB-4 leukemic cell line = assay: Fixed propidium iodide staining, flow cytometry; format: cell-based, human; conditions: 48 h
[1] = tested on: MDA-231 breast tumour cell line; assay: MTT assay; format: cell-based; conditions: Homo sapiens, MDA-MB-231, 48 h, read-out: MTT50
Experimental: (§1) All cell lines were assayed as asynchronously growing cells. Leukemic cell lines, OCI-AML-2, OCI-AML-3 (referred to hereafter as AML-2 and AML-3, respectively), NB-4, KK, B1, G2, and W1 were cultured in alpha-minimal essential medium (α-MEM) (Princess Margaret Hospital Media Services) supplemented with 10% fetal bovine serum (FBS) (Sigma, St. Louis, Mo.). Non-transformed, diploid fibroblast lines WI38 and IMR90, were cultured in α-MEM and MEM F-15, respectively supplemented with 10% FBS. Media for IMR90 cells was also supplemented with 1.5 g/L bicarbonate and 1 mM pyruvate. Breast tumour cell lines, MDA-231, SK-BR-3, MCF-7, ZR-751, and melanoma tumour cell lines, WM9, WM983, WM793, 1232, were grown in α-MEM supplemented with 10% fetal bovine serum. Prostate tumour cell lines, DU145 and PC-3, were grown in RPMI 1640 media supplemented with 10% FBS. All cell lines were cultured in the presence of penicillin/streptomycin. Mononucleated cells were isolated from normal bone marrow using Ficoll hypaque and then T-cell depleted. T-cell depletion was performed by incubating the mononucleated bone marrow cells in α-MEM at a concentration of 2×10^7 cells/mL with 10% absor FBS and 10% (v/v) sheep red blood cells for 4 to 16 h. Absor FBS was prepared beforehand by heating FBS at 56° C. for 1 h, incubating with sheep red blood cells at 0.5% (v/v) for 1 h and then filtering the FBS with a […]. The T-cell depleted, mononucleated cells were recovered using Ficoll hypaque and were maintained in α-MEM supplemented with 20% FBS and 10% 5637 ? nditioned media. 5637 conditioned media ? s previously harvested from confluent 5637 cells after a 3 day incubation. Normal bone marrow from bone marrow transplant donor was collected following informed consent according to institutional guidelines.
(§2) Approximately 20 mg of each compound was dissolved in 5 mL of ACS grade acetone (Sigma) using a 5 mL volumetric flask. Stock solutions of the compounds were stored in the dark at −20° C. Compounds were diluted prior to each experiment.
(§3) Adherent cells were seeded at 67×10^3 cells/mL in a 96 well plate (Falcon, Mississauga, Ontario) the day prior to exposure to compound. Suspension cells were seeded at 27×10^4 cells/mL in a 96 well plate the day of exposure to compound. Mononucleated, T-cell depleted normal bone marrow cells were seeded at 67×10^4 cells/mL in a 96 well plate the day of exposure to compound. Compounds and solvent control were added to cells and assayed in triplicate or sextuplet. Following 48 h of incubation at 37° C. with 5% CO2, 40 μL of a 5 mg/mL solution of 3-[4,5-dimethylthiazol-2-yl]-2,5-diphenyltetrazolium bromide (MTT) substrate (Sigma) in Dulbecco's phosphate-buffered saline (D-PBS) was added. After 4 h of incubation at 37° C. with 5% CO2, the resulting violet formazan precipitate was solubilized by the addition of 80 μL of a 0.01 M HCI, 10% sodium dodecyl sulfate (SDS; Sigma) solution overnight at 37° C. with 5% CO2. The plates were then analyzed using the BioRad Benchmark Microplate Reader (BioRad Laboratories, Hercules, Calif.) at 570 nm to determine the optical density of the samples. MTT data was analyzed using Prism 3.0 (GraphPad Software, Inc., San Diego, Calif.) by the Chou-Talalay method. MTT graphs shown are a representative experiment.
(§4) Adherent cells were seeded at 67×10^3 cells/mL in a 96 well plate (Falcon, Mississauga, Ontario) the day prior to exposure to compound. Suspension cells were seeded at 27×10^4 cells/mL in a 96 well plate the day of exposure to compound. Mononucleated, T-cell depleted normal bone marrow cells were seeded at 67×10^4 cells/mL in a 96 well plate the day of exposure to compound. Compounds and solvent control were added to cells and assayed in triplicate or sextuplet. […]

[2] = tested on: SK-BR-3 breast tumour cell line; assay: MTT assay; format: cell-based; conditions: Homo sapiens, 48 h, read-out: MTT50
Experimental: as §1, §2, §3, §4

[3] = tested on: WM9 melanoma tumour cell line; assay: MTT assay; format: cell-based; conditions: 48 h, read-out: MTT50
Experimental: as §1, §2, §3, §4

[4] = tested on: ZR-751 breast tumour cell line; assay: MTT assay; format: cell-based; conditions: Homo sapiens, ZR-75-1, 48 h, read-out: MTT50
Experimental: as §1, §2, §3, §4

[5] = tested on: DU145 prostate tumour cell line; assay: MTT assay; format: cell-based; conditions: Homo sapiens, DU-145, 48 h, read-out: MTT50
Experimental: as §1, §2, §3, §4

[6] = tested on: WM983 melanoma tumour cell line; assay: MTT assay; format: cell-based; conditions: 48 h, read-out: MTT50
Experimental: as §1, §2, §3, §4

[7] = tested on: 1232 melanoma tumour cell line; assay: MTT assay; format: cell-based; conditions: 48 h, read-out: MTT50
Experimental: as §1, §2, §3, §4

[8] = tested on: WM793 melanoma tumour cell line; assay: MTT assay; format: cell-based; conditions: Homo sapiens, 48 h, read-out: MTT50
Experimental: as §1, §2, §3, §4

Structure (SMILES): CSSCC(=O)c1ccccc1 [Compound P, phenacyl methyl disulphide]
% pre-G1 (Fixed PI) (NB-4 leukemic cell line; NB-4, dose 50 uM): 18%
% pre-G1 (Fixed PI) (NB-4 leukemic cell line; NB-4, dose 150 uM): 75%

IC50 [1]: 68.9 µM
IC50 [2]: 59 µM
IC50 [3]: 41 µM
IC50 [4]: 52 µM
IC50 [5]: 65.4 µM
IC50 [6]: 47 µM
IC50 [7]: 56 µM
IC50 [8]: 47 µM
Structure (SMILES): CCC(=O)OCSSc1ccccc1 [Compound Q, 1-phenyl-1,2-dithiapropyl propionate]

Structure (SMILES): CSSc1ccc([N+](=O)[O-])cc1 [M, methyl p-nitrophenyl disulphide]
% pre-G1 (Fixed PI) (NB-4 leukemic cell line; cell line printed NBA, dose 20 uM): 16%
% pre-G1 (Fixed PI) (NB-4 leukemic cell line; cell line printed NBA, dose 40 uM): 60%
